# Measured values: PubChem BioAssay (NCI)
#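 Results reflect a 48-hour exposure of cells in 96-well plates to compound at five concentrations. The concentration for 50% growth inhibition is given as GI50. TGI: concentration producing complete growth inhibition.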
# Tests used:
# Assay in all cases: inhibition of tumour cell growth, NCI panel, 48 h
# [1] = test system: OVCAR-5 ovarian
# [2] = test system: CCRF-CEM leukemia
# [3] = test system: TK-10 renal
# [4] = test system: SR leukemia
# [5] = test system: NCI/ADR-RES ovarian
# [6] = test system: SF-539 CNS
# [7] = test system: DU-145 prostate
# [8] = test system: SNB-75 CNS
# [9] = test system: PC-3 prostate
# [10] = test system: COLO 205 colon
# [11] = test system: HCC-2998 colon
# [12] = test system: BT-549 breast
# [13] = test system: OVCAR-4 ovarian
# [14] = test system: SK-MEL-5 melanoma
# [15] = test system: UO-31 renal
# [16] = test system: HS 578T breast
# [17] = test system: MALME-3M melanoma
# [18] = test system: SN12C renal
# [19] = test system: RPMI-8226 leukemia
# [20] = test system: NCI-H522 lung
# [21] = test system: HOP-92 NSCLC
# [22] = test system: 786-0 renal
# [23] = test system: EKVX NSCLC
# [24] = test system: NCI-H23 lung
# [25] = test system: NCI-H226 lung
# [26] = test system: SK-MEL-2 melanoma
# [27] = test system: SW-620 colon
# [28] = test system: NCI-H460 lung
# [29] = test system: M14 melanoma
# [30] = test system: MDA-MB-231 breast
# [31] = test system: OVCAR-8 ovarian
# [32] = test system: HCT-116 colon
# [33] = test system: KM12 colon
# [34] = test system: LOX IMVI melanoma
# [35] = test system: SF-268 CNS
# [36] = test system: HL-60(TB) leukemia
# [37] = test system: UACC-62 melanoma
# [38] = test system: A549 NSCLC
# [39] = test system: A498 renal
# [40] = test system: SNB-19 CNS
# [41] = test system: IGROV1 ovarian
# [42] = test system: HCT-15 colon
# [43] = test system: MDA-MB-435
# [44] = test system: OVCAR-3 ovarian
# [45] = test system: MCF7 breast
# [46] = test system: K-562 leukemia
# [47] = test system: MOLT-4 leukemia
# [48] = test system: SK-OV-3 ovarian
# [49] = test system: U251 CNS
# [50] = test system: SF-295 CNS
# [51] = test system: HT29 colon
# [52] = test system: UACC-257 melanoma
# [53] = test system: HOP-62 NSCLC
structure (smiles),measurement,setting,value
CCCC[C@H](NC(=O)[C@H]1CCCCN1C)C(=O)N(C)[C@H](C[C@@H](OC(C)=O)c1nc(C(=O)N[C@@H](Cc2ccccc2)C[C@H](C)C(=O)OCC)cs1)C(C)C,GI50,[1],8.33 nM
same,TGI,[1],21600 nM
same,GI50,[2],< 3.33 nM
same,TGI,[2],6210 nM
same,GI50,[3],7860 nM
same,TGI,[3],> 33300 nM
same,GI50,[4],< 3.33 nM
same,TGI,[4],6790 nM
same,GI50,[5],82.8 nM
same,TGI,[5],> 33300 nM
same,GI50,[6],3.46 nM
same,TGI,[6],24 nM
same,GI50,[7],< 3.33 nM
same,TGI,[7],> 33300 nM
same,GI50,[8],< 3.33 nM
same,TGI,[8],10800 nM
same,GI50,[9],< 3.33 nM
same,TGI,[9],> 33300 nM
same,GI50,[10],< 3.33 nM
same,TGI,[10],7.12 nM
same,GI50,[11],< 3.33 nM
same,TGI,[11],8390 nM
same,GI50,[12],< 3.33 nM
same,TGI,[12],133 nM
same,GI50,[13],476 nM
same,TGI,[13],> 33300 nM
same,GI50,[14],< 3.33 nM
same,TGI,[14],47.3 nM
same,GI50,[15],18.8 nM
same,TGI,[15],11900 nM
same,GI50,[16],< 3.33 nM
same,TGI,[16],8490 nM
same,GI50,[17],1080 nM
same,TGI,[17],7100 nM
same,GI50,[18],5.83 nM
same,TGI,[18],6550 nM
same,GI50,[19],< 3.33 nM
same,TGI,[19],4850 nM
same,GI50,[20],< 3.33 nM
same,TGI,[20],775 nM
same,GI50,[21],1230 nM
same,TGI,[21],27300 nM
same,GI50,[22],< 3.33 nM
same,TGI,[22],6270 nM
same,GI50,[23],7.39 nM
same,TGI,[23],> 33300 nM
same,GI50,[24],6.41 nM
same,TGI,[24],> 33300 nM
same,GI50,[25],85.7 nM
same,TGI,[25],19100 nM
same,GI50,[26],< 3.33 nM
same,TGI,[26],13700 nM
same,GI50,[27],< 3.33 nM
same,TGI,[27],> 33300 nM
same,GI50,[28],< 3.33 nM
same,TGI,[28],5650 nM
same,GI50,[29],< 3.33 nM
same,TGI,[29],3620 nM
same,GI50,[30],< 3.33 nM
same,TGI,[30],341 nM
same,GI50,[31],5.28 nM
same,TGI,[31],> 33300 nM
same,GI50,[32],< 3.33 nM
same,TGI,[32],> 33300 nM
same,GI50,[33],< 3.33 nM
same,TGI,[33],> 33300 nM
same,GI50,[34],< 3.33 nM
same,TGI,[34],5640 nM
same,GI50,[35],< 3.33 nM
same,TGI,[35],12100 nM
same,GI50,[36],< 3.33 nM
same,TGI,[36],3.41 nM
same,GI50,[37],< 3.33 nM
same,TGI,[37],24100 nM
same,GI50,[38],4.44 nM
same,TGI,[38],> 33300 nM
same,GI50,[39],< 3.33 nM
same,TGI,[39],8.69 nM
same,GI50,[40],< 3.33 nM
same,TGI,[40],> 33300 nM
same,GI50,[41],3.43 nM
same,TGI,[41],> 33300 nM
same,GI50,[42],5.21 nM
same,TGI,[42],5730 nM
same,GI50,[43],< 3.33 nM
same,TGI,[43],< 3.33 nM
same,GI50,[44],< 3.33 nM
same,TGI,[44],12200 nM
same,GI50,[45],< 3.33 nM
same,TGI,[45],> 33300 nM
same,GI50,[46],< 3.33 nM
same,TGI,[46],11100 nM
same,GI50,[47],3.82 nM
same,TGI,[47],20500 nM
same,GI50,[48],< 3.33 nM
same,TGI,[48],13000 nM
same,GI50,[49],< 3.33 nM
same,TGI,[49],8580 nM
same,GI50,[50],< 3.33 nM
same,TGI,[50],4340 nM
same,GI50,[51],< 3.33 nM
same,TGI,[51],3600 nM
same,GI50,[52],3560 nM
same,TGI,[52],10600 nM
same,GI50,[53],< 3.33 nM
same,TGI,[53],8610 nM
